“And” between values parts separate entries of the source, which are not always exact repeats. Equal values may be shown once. Marks after values point to notes of the source that are not given here.
What was measured:
[1] = test system: maize haploid seedlings of origin A619; test: doubled haploid production trial, A619 haploids (Example 4); details: 600 kPa, 2 days; for Ear: No. of kernels produced/ear: selfed
Experimental: (§1) Ten to nineteen plants were treated for each plot. Self pollinations were conducted on these treated haploids if there were fertile sectors on the tassel. Pollen grains were collected carefully on a sheet of paper and transferred to the silks repeatedly. Silks and husks were cut back prior to pollination in order to permit maximum seed set. The numbers of fertile tassel and ear sectors, as well as the numbers of anthers and selfed kernels were recorded. Statistical analyses were as described above.

[2] = test system: maize haploid seedlings of origin B55; test: doubled haploid production trial, B55 haploids (Example 4); details: for Ear: Plants with kernels after selfing % / Tassel: No. of fertile anthers extruded/tassel / Tassel: No. of fertile sectors/tassel / Tassel: Plants with fertile sectors % / Ear: Plants with kernels after selfing No. / Tassel: Plants with fertile sectors No. / No. of plants Survived / Ear: No. of kernels produced/ear: B55 haploids, 600 kPa, 2 days; for Ear: No. of kernels produced/ear: selfed
Experimental: as §1

[3] = test system: maize haploid seedlings of origin Oh43; test: doubled haploid production trial, Oh43 haploids (Example 4); details: for Ear: Plants with kernels after selfing % / Tassel: No. of fertile anthers extruded/tassel / Tassel: Plants with fertile sectors % / Ear: Plants with kernels after selfing No. / Tassel: Plants with fertile sectors No. / No. of plants Survived / Ear: No. of kernels produced/ear: 600 kPa, 2 days; for Ear: No. of kernels produced/ear: selfed
Experimental: as §1

[4] = test system: maize haploid seedlings of origin A619 × B73; test: doubled haploid production trial, A619 × B73 haploids (Example 4); details: 600 kPa, 2 days; for Ear: No. of kernels produced/ear: selfed
Experimental: as §1

[5] = test system: maize haploid seedlings of various origin; test: doubled haploid production trial, combined data (Total/Average) of haploids of eight different origins; details: for Ear: Plants with kernels after selfing % / Tassel: No. of fertile anthers extruded/tassel / Tassel: No. of fertile sectors/tassel / Tassel: Plants with fertile sectors % / Ear: Plants with kernels after selfing No. / Tassel: Plants with fertile sectors No. / No. of plants Survived / Ear: No. of kernels produced/ear: Total/Average of eight origins, 600 kPa, 2 days; for Ear: No. of kernels produced/ear: selfed
Experimental: as §1

[6] = Oh43 haploids, 5 leaf stage, 14 survived
[7] = Oh43 haploids, 6 leaf stage, 12 survived
[8] = Oh43 haploids, 7 leaf stage, 10 survived

## [N-]=[N+]=O [nitrous oxide gas, nitrous oxide]
[1]; 5 leaf stage
  Ear: Plants with kernels after selfing %: 17 n.s. %
  Tassel: No. of fertile anthers extruded/tassel: 4.5 n.s /tassel
  Tassel: No. of fertile sectors/tassel: 0.3 n.s. /tassel
  Tassel: Plants with fertile sectors %: 25 n.s. %
  Ear: No. of kernels produced/ear: 0.3 n.s. /ear
[1]; 5 leaf stage, 12 survived
  Ear: Plants with kernels after selfing No.: 2
  Tassel: Plants with fertile sectors No.: 3
[1]; 5 leaf stage, 12 treated
  No. of plants Survived: 12
[1]; 6 leaf stage
  Ear: Plants with kernels after selfing %: 33%
  Tassel: No. of fertile anthers extruded/tassel: 3.2 /tassel
  Tassel: No. of fertile sectors/tassel: 0.6 /tassel
  Tassel: Plants with fertile sectors %: 56%
  Ear: No. of kernels produced/ear: 2.0 /ear
[1]; 6 leaf stage, 9 survived
  Ear: Plants with kernels after selfing No.: 3
  Tassel: Plants with fertile sectors No.: 5
[1]; 6 leaf stage, 9 treated
  No. of plants Survived: 9
[1]; 7 leaf stage
  Ear: Plants with kernels after selfing %: 31%
  Tassel: No. of fertile anthers extruded/tassel: 8.2 /tassel
  Tassel: No. of fertile sectors/tassel: 1.6 /tassel
  Tassel: Plants with fertile sectors %: 54%
  Ear: No. of kernels produced/ear: 1.6 /ear
[1]; 7 leaf stage, 13 survived
  Ear: Plants with kernels after selfing No.: 4
  Tassel: Plants with fertile sectors No.: 7
[1]; 7 leaf stage, 14 treated
  No. of plants Survived: 13
[2]; B55 haploids after nitrous oxide treatment
  successful self pollination rate: 90–100%
[2]; 5 leaf stage
  Ear: Plants with kernels after selfing %: 60** %
  Tassel: No. of fertile anthers extruded/tassel: 161.3** /tassel
  Tassel: No. of fertile sectors/tassel: 1.6 /tassel
  Tassel: Plants with fertile sectors %: 90** %
  Ear: No. of kernels produced/ear: 31.5* /ear
[2]; 5 leaf stage, 10 survived
  Ear: Plants with kernels after selfing No.: 6
  Tassel: Plants with fertile sectors No.: 9
[2]; 5 leaf stage, 10 treated
  No. of plants Survived: 10
[2]; 6 leaf stage
  Ear: Plants with kernels after selfing %: 90%
  Tassel: No. of fertile anthers extruded/tassel: 380 /tassel and 380.1** /tassel
  Tassel: No. of fertile sectors/tassel: 4.5** /tassel
  Tassel: Plants with fertile sectors %: 100** %
  Ear: No. of kernels produced/ear: 61.6 /ear
[2]; 6 leaf stage, 10 survived
  Ear: Plants with kernels after selfing No.: 9
  Tassel: Plants with fertile sectors No.: 10
[2]; 6 leaf stage, 10 treated
  No. of plants Survived: 10
[2]; 7 leaf stage
  Ear: Plants with kernels after selfing %: 78** %
  Tassel: No. of fertile anthers extruded/tassel: 401.3** /tassel
  Tassel: No. of fertile sectors/tassel: 10.6** /tassel
  Tassel: Plants with fertile sectors %: 100** %
  Ear: No. of kernels produced/ear: 65.6** /ear
[2]; 7 leaf stage, 9 survived
  Ear: Plants with kernels after selfing No.: 7
  Tassel: Plants with fertile sectors No.: 9
[2]; 7 leaf stage, 9 treated
  No. of plants Survived: 9
[3]; Oh43 haploids
  self pollination success rates after treatment: 20–30%
[3]; Oh43 haploids, 5 leaf stage
  Ear: Plants with kernels after selfing %: 29 n.s %
  Tassel: No. of fertile anthers extruded/tassel: 11.2* /tassel
  Tassel: Plants with fertile sectors %: 57%
  Ear: No. of kernels produced/ear: 0.6 n.s. /ear
[3]; [6]
  Ear: Plants with kernels after selfing No.: 4
  Tassel: Plants with fertile sectors No.: 8
[3]; Oh43 haploids, 5 leaf stage, 19 treated
  No. of plants Survived: 14
[3]; Oh43 haploids, 6 leaf stage
  Ear: Plants with kernels after selfing %: 17%
  Tassel: No. of fertile anthers extruded/tassel: 5.7** /tassel
  Tassel: Plants with fertile sectors %: 92** %
  Ear: No. of kernels produced/ear: 1.0 /ear
[3]; [7]
  Ear: Plants with kernels after selfing No.: 2
  Tassel: Plants with fertile sectors No.: 11
[3]; Oh43 haploids, 6 leaf stage, 16 treated
  No. of plants Survived: 12
[3]; Oh43 haploids, 7 leaf stage
  Ear: Plants with kernels after selfing %: 10%
  Tassel: No. of fertile anthers extruded/tassel: 2.6 /tassel
  Tassel: Plants with fertile sectors %: 70* %
  Ear: No. of kernels produced/ear: 0.1 /ear
[3]; [8]
  Ear: Plants with kernels after selfing No.: 1
  Tassel: Plants with fertile sectors No.: 7
[3]; Oh43 haploids, 7 leaf stage, 15 treated
  No. of plants Survived: 10
[3]; in vivo
  Tassel: No. of fertile sectors/tassel: 0.8 /tassel and 1.3** /tassel and 1.0 /tassel
[4]; 5 leaf stage
  Ear: Plants with kernels after selfing %: 36 n.s. %
  Tassel: No. of fertile anthers extruded/tassel: 20.8** /tassel
  Tassel: Plants with fertile sectors %: 73** %
  Ear: No. of kernels produced/ear: 4.2 n.s. /ear
[4]; 5 leaf stage, 11 survived
  Ear: Plants with kernels after selfing No.: 4
  Tassel: Plants with fertile sectors No.: 8
[4]; 5 leaf stage, 12 treated
  No. of plants Survived: 11
[4]; 6 leaf stage
  Ear: Plants with kernels after selfing %: 36%
  Tassel: No. of fertile anthers extruded/tassel: 34.5** /tassel
  Tassel: No. of fertile sectors/tassel: 1.7** /tassel
  Tassel: Plants with fertile sectors %: 73** %
  Ear: No. of kernels produced/ear: 6.2 /ear
[4]; 6 leaf stage, 11 survived
  Ear: Plants with kernels after selfing No.: 4
  Tassel: Plants with fertile sectors No.: 8
[4]; 6 leaf stage, 11 treated
  No. of plants Survived: 11
[4]; 7 leaf stage
  Ear: Plants with kernels after selfing %: 17%
  Tassel: No. of fertile anthers extruded/tassel: 4.8* /tassel
  Tassel: Plants with fertile sectors %: 75** %
  Ear: No. of kernels produced/ear: 3.5 /ear
[4]; 7 leaf stage, 12 survived
  Ear: Plants with kernels after selfing No.: 2
  Tassel: Plants with fertile sectors No.: 9
[4]; 7 leaf stage, 12 treated
  No. of plants Survived: 12
[5]; 5 leaf stage
  Ear: Plants with kernels after selfing %: 36** %
  Tassel: No. of fertile anthers extruded/tassel: 32.3** /tassel
  Tassel: No. of fertile sectors/tassel: 0.9** /tassel
  Tassel: Plants with fertile sectors %: 61** %
  Ear: No. of kernels produced/ear: 4.4** /ear
[5]; 5 leaf stage, 95 survived
  Ear: Plants with kernels after selfing No.: 33
  Tassel: Plants with fertile sectors No.: 58
[5]; 5 leaf stage, 102 treated
  No. of plants Survived: 95
[5]; 6 leaf stage
  Ear: Plants with kernels after selfing %: 44%
  Tassel: No. of fertile anthers extruded/tassel: 74.3 /tassel
  Tassel: No. of fertile sectors/tassel: 2.1** /tassel
  Tassel: Plants with fertile sectors %: 78** %
  Ear: No. of kernels produced/ear: 8.6** /ear
[5]; 6 leaf stage, 90 survived
  Ear: Plants with kernels after selfing No.: 39
  Tassel: Plants with fertile sectors No.: 70
[5]; 6 leaf stage, 97 treated
  No. of plants Survived: 90
[5]; 7 leaf stage
  Ear: Plants with kernels after selfing %: 34** %
  Tassel: No. of fertile anthers extruded/tassel: 63.5** /tassel
  Tassel: No. of fertile sectors/tassel: 2.8** /tassel
  Tassel: Plants with fertile sectors %: 74** %
  Ear: No. of kernels produced/ear: 7.0** /ear
[5]; 7 leaf stage, 90 survived
  Ear: Plants with kernels after selfing No.: 29
  Tassel: Plants with fertile sectors No.: 67
[5]; 7 leaf stage, 101 treated
  No. of plants Survived: 90
[5]; haploids derived from A619, B73 and W22×W23
  effect of treatment on fertility: no significant effect
[5]; haploids induced from Oh43, A619×B73, and Oh43×Mol7
  treated haploids that produced double haploid progenies after self pollination: about 30%

From patent US7135615B2, “Chromosome doubling method” (The Curators of the University of Missouri, priority 2001, dated 2006)
